According to patent US20250051375A1, “ANTI-HIV COMPOUNDS” (Gilead Sciences, Inc., priority 2023, published 2025):
Values after ≈ are worked out from the molar mass of the structure shown. Read-outs that look alike come from different tables or passages of the source.

Assays:
[1] = system: HIV-1 IIIB strain; test: MT-4 HIV Wild Type Virus Infection Assay (IIIB Virus); format: cell-based; settings: Human immunodeficiency virus 1, IIIB, MT4, 120 h, MT-4 cells acutely infected with HIV-1 IIIB, 5 day incubation, Cell-titer glo
Procedure, shortened: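 MT-4 cells at 2×10^6 cells/ml in RPMI/10% FBS were acutely infected with HIV-1 IIIB for 1 h at 37° C, diluted 25× and added to serially diluted compounds. After 5 days at 37° C, viability read by CellTiter-Glo luminescence; EC50 from dose-response curves.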

[2] = biological target: bovine intestinal alkaline phosphatase (Bos taurus (Bovine), UniProt P19111); test: BiALP: conversion by bovine intestinal alkaline phosphatase; format: in vitro ADME; settings: 2 μM substrate, 100 ng/mL iALP, Tris pH 7.8, 37° C., 60 minutes; for [Intermediate A] or [Amprenavir]: parent formed
Procedure, shortened: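 LC-MS (positive mode) quantified analyte/internal-standard peak area ratios, referenced to 2 μM parent product. This followed a 60 min, 37° C reaction of 2 μM substrate in Tris buffer pH 7.8 (1 mM MgCl2, 1 mM ZnCl2) containing 100 ng/mL iALP or buffer alone, run in triplicate.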

[3] = Intestinal S9 Assay (human GI S9); format: in vitro ADME; settings: 1.0 mg/mL S9 protein; for half-life at 2 μM: human, TRIS pH 7.4, read-out: Human GI S9 T½
Protocol: (§1) Reagents. Stock solutions of test compounds in dimethyl sulfoxide (DMSO) having a final concentration of 10 mM were prepared and used in all experiments. Sekisui XenoTech (Kansas City, KS) provided pooled intestinal S9 fractions. All other chemicals were purchased from Sigma-Aldrich (St. Louis, MO) or VWR (West Chester, PA). Internal Standard/Quench (IS/Q) used to stop reactions was 100 nM labetalol in (by volume) formic acid (1%) and acetonitrile (99%).
(§2) Intestinal S9 Assay: For each test compound, an aliquot of the test compound was added to S9 stock diluted with TRIS buffer (100 mM TRIS, 1 mM ZnCl2, 1 mM MgCl2), pH 7.4, to obtain an incubation protein concentration of 1.0 mg/mL. The incubation was initiated by the addition of the substrate to the S9 reaction mixture to a final concentration of 2 μM. At 0, 10, 20, 30, 60 and 120 min, 25 μL aliquots of the reaction mixture were transferred to plates containing 225 μl of IS/Q solution. After quenching, the plates were centrifuged at 3000×g for 30 minutes. 150 μL aliquots of each supernatant were transferred to new plates and 150 μL water was added. Aliquots (10 μL) of the prepared samples were analyzed on a Thermo Q-Exactive mass spectrometer as described below.
(§3) Liquid Chromatography-Mass Spectrometry: Quantification of test compounds and control substrate was performed by analyte/internal standard peak area ratio (PAR) values measured on a Thermo Q-Exactive mass spectrometer coupled to a Dionex UltiMate 3000 HPLC with a Leap Technologies HTC PAL autosampler. The column used for analysis was a Thermo Scientific Hypersil GOLD (1.9 μm particle size, 50×2.1 mm). Mobile phase A consisted of 0.1% (v/v) formic acid in water. Mobile phase B consisted of 0.1% (v/v) formic acid in acetonitrile. Elution of analytes was achieved by a series of linear gradients varying the proportions of A and B. The mass spectrometer was calibrated on a weekly basis and mass tolerance of 5 ppm was used.
(§4) Data Analysis. Metabolic stabilities were determined by measuring the rates of disappearance of test compound and positive control substrate. Data (% of substrate remaining) were plotted on a semi-log scale and fitted using an exponential decline model:
(§5) where • Ct% of substrate remaining at time=t • C0% of substrate remaining at time=0 • t time • T½ half-life • The Half-life (T½) is determined by the following equation:
(§6) [formula] • Assuming a first-order reaction, the slope (k) is extrapolated from the aforementioned plotted data.

[4] = Intestinal S9 Assay (dog GI S9); format: in vitro ADME; settings: 1.0 mg/mL S9 protein; for half-life at 2 μM: dog, TRIS pH 7.4, read-out: Dog GI S9 T½
Protocol: as §1, §2, §3, §4, §5, §6

[5] = Solubility in FaSSIF; settings: for solubility at 2 h: 23 °C, pH 6.5, fassif, thermodynamic from solid
Procedure, shortened: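 Concentration measured by HPLC-UV after solid compound was dosed at 5 mg/mL into pH 6.5 fasted-state simulated intestinal fluid containing taurocholate and lecithin (4:1 molar) and vortexed.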

[6] = PBS Stability Assay; format: physicochemical; settings: buffer, pH 7.4, 2 μM, phosphate buffered saline pH 7.4; read-out: PBS T½
Procedure, shortened: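 Half-life derives from first-order exponential decline of % compound remaining, quantified by LC-MS analyte/internal-standard peak-area ratio. Compound (2 μM final) sat in pH 7.4 phosphate-buffered saline, with aliquots quenched into acidified acetonitrile containing labetalol from 0 to 120 min.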

Chain of bovine intestinal alkaline phosphatase (P19111 20-506): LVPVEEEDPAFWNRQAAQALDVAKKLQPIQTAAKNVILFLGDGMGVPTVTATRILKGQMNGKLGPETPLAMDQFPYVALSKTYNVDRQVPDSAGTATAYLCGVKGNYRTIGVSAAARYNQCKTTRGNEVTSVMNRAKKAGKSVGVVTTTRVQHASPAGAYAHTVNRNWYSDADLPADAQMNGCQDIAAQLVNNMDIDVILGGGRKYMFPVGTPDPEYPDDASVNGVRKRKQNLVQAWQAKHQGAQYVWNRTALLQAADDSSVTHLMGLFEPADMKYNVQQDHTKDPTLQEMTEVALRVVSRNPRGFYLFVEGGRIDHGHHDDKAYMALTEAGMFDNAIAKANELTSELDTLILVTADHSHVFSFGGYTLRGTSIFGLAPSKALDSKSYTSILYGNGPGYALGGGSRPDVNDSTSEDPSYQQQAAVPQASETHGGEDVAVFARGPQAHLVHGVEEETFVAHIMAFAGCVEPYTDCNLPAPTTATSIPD

Compound | EC50 [1] | [Compound] [2] | half-life at 2 μM [3] | half-life at 2 μM [4] | solubility at 2 h [5] | biALP Intermediate A or [Amprenavir] (% of total) [2] | [Intermediate A] or [Amprenavir] [2] | Human GI S9 [Intermediate A] ([3]; 2 μM, TRIS pH 7.4) | Human GI S9 [Intermediate A] % ([3]; 2 μM, TRIS pH 7.4) | Dog GI S9 [Intermediate A] ([4]; 2 μM, TRIS pH 7.4) | Dog GI S9 [Intermediate A] % ([4]; 2 μM, TRIS pH 7.4) | half-life at 2 μM [6] | EC50 ([1]; read-out: EC50) | FaSSIF (pH 6.5) solubility ([5]; FaSSIF pH 6.5, dose 5 mg/mL, 2-hour incubation, ambient temperature)
COC(=O)N[C@H](C(=O)N[C@@H](Cc1ccc(C#Cc2cnc(N3CC4CCC(C3)N4C3COC3)nc2)cc1)[C@H](CN(Cc1c(F)cc(-c2ccn(C(F)F)n2)cc1F)NC(=O)[C@@H](NC(=O)OC)C(C)(C)C(F)(F)F)OC(=O)CC(C)(C)c1c(CC(=O)N2C[C@H]3[C@@H]([C@H]2C(=O)O)C3(C)C)cc(C)cc1OP(=O)(O)O)C(C)(C)C(F)(F)F [Example 47] | 593 nM | 1950.3 nM | 383 min | 440 min | 3620 µg/mL (≈ 2230 µM) |  |  |  |  |  |  |  |  | 
COC(=O)N[C@H](C(=O)N[C@@H](Cc1ccc(C#Cc2cnc(N3CC4CCC(C3)N4C3COC3)nc2)cc1)[C@H](CN(Cc1c(F)cc(-c2ccn(C(F)F)n2)cc1F)NC(=O)[C@@H](NC(=O)OC)C(C)(C)C(F)(F)F)OC(=O)CC(C)(C)c1c(CC(=O)N2[C@H](C(=O)O)C[C@@H]3CCCC[C@@H]32)cc(C)cc1OP(=O)(O)O)C(C)(C)C(F)(F)F [Example 55] | 3480 nM | 1659.2 nM | 764 min | 718 min | < 1000 µg/mL |  |  |  |  |  |  |  |  | 
COC(=O)N[C@H](C(=O)N[C@@H](Cc1ccc(C#Cc2cnc(N3CC4CCC(C3)N4C3COC3)nc2)cc1)[C@H](CN(Cc1c(F)cc(-c2ccn(C(F)F)n2)cc1F)NC(=O)[C@@H](NC(=O)OC)C(C)(C)C(F)(F)F)OC(=O)CC(C)(C)c1c(CC(=O)N2CC(C)(C)C[C@H]2C(=O)O)cc(C)cc1OP(=O)(O)O)C(C)(C)C(F)(F)F [Example 61] | 1890 nM | 1611.1 nM | 702 min | 671 min | 2580 µg/mL (≈ 1600 µM) |  |  |  |  |  |  |  |  | 
COC(=O)N[C@H](C(=O)N[C@@H](Cc1ccc(C#Cc2cnc(N3CC4CCC(C3)N4C3COC3)nc2)cc1)[C@H](CN(Cc1c(F)cc(-c2ccn(C(F)F)n2)cc1F)NC(=O)[C@@H](NC(=O)OC)C(C)(C)C(F)(F)F)OC(=O)CC(C)(C)c1c(CC(=O)Nc2cc(C(=O)O)cc(S(C)(=O)=O)c2)cc(C)cc1OP(=O)(O)O)C(C)(C)C(F)(F)F [Example 109] | 90.5 nM | 1951.1 nM | 269 min | 134 min | < 1000 µg/mL |  |  |  |  |  |  |  |  | 
COC(=O)N[C@H](C(=O)N[C@@H](Cc1ccc(C#Cc2cnc(N3CC4CCC(C3)N4C3COC3)nc2)cc1)[C@H](CN(Cc1c(F)cc(-c2ccn(C(F)F)n2)cc1F)NC(=O)[C@@H](NC(=O)OC)C(C)(C)C(F)(F)F)OC(=O)CC(C)(C)c1c(CC(=O)NC23CC4CC(C2)CC(C(=O)O)(C4)C3)cc(C)cc1OP(=O)(O)O)C(C)(C)C(F)(F)F [Example 108] | 444 nM | 2296.1 nM | 432 min | 268 min | < 1000 µg/mL |  |  |  |  |  |  |  |  | 
COC(=O)N[C@H](C(=O)N[C@@H](Cc1ccc(C#Cc2cnc(N3CC4CCC(C3)N4C3COC3)nc2)cc1)[C@H](CN(Cc1c(F)cc(-c2ccn(C(F)F)n2)cc1F)NC(=O)[C@@H](NC(=O)OC)C(C)(C)C(F)(F)F)OC(=O)CC(C)(C)c1c(CC(=O)NCc2ccc(S(N)(=O)=O)cc2)cc(C)cc1OP(=O)(O)O)C(C)(C)C(F)(F)F [Example 62] | 280 nM | 2213.4 nM |  | 789 min |  | 0 % of total | 0 nM | 22.2 nM | 1.8% | 38.3 nM | 3.1% |  |  | 
COC(=O)N[C@H](C(=O)N[C@@H](Cc1ccc(C#Cc2cnc(N3CC4CCC(C3)N4C3COC3)nc2)cc1)[C@H](CN(Cc1c(F)cc(-c2ccn(C(F)F)n2)cc1F)NC(=O)[C@@H](NC(=O)OC)C(C)(C)C(F)(F)F)OC(=O)CC(C)(C)c1c(CC(=O)N[C@H]2C[C@@H](C(=O)O)C2)cc(C)cc1OP(=O)(O)O)C(C)(C)C(F)(F)F [Example 102] | 54.1 nM | 1966.3 nM |  |  | 2860 µg/mL (≈ 1810 µM) |  |  |  |  |  |  | 467 min |  | 
COC(=O)N[C@H](C(=O)N[C@@H](Cc1ccc(C#Cc2cnc(N3CC4CCC(C3)N4C3COC3)nc2)cc1)[C@H](CN(Cc1c(F)cc(-c2ccn(C(F)F)n2)cc1F)NC(=O)[C@@H](NC(=O)OC)C(C)(C)C(F)(F)F)OC(=O)OCOC(=O)CC(C)(C)c1c(CC(=O)N[C@@H](CCC(N)=O)C(=O)O)cc(C)cc1OP(=O)(O)O)C(C)(C)C(F)(F)F [Example 87] | 3.6 nM | 1161.5 nM |  |  | 4500 µg/mL (≈ 2670 µM) |  |  |  |  |  |  | 325 min |  | 
COC(=O)N[C@H](C(=O)N[C@@H](Cc1ccc(C#Cc2cnc(N3CC4CCC(C3)N4C3COC3)nc2)cc1)[C@H](CN(Cc1c(F)cc(-c2ccn(C(F)F)n2)cc1F)NC(=O)[C@@H](NC(=O)OC)C(C)(C)C(F)(F)F)OC(=O)CC(C)(C)c1c(CC(=O)N(CC(=O)O)CC(=O)O)cc(C)cc1OP(=O)(O)O)C(C)(C)C(F)(F)F [Example 106] | 761 nM | 1588.2 nM |  |  | 3920 µg/mL (≈ 2450 µM) |  |  |  |  |  |  | 271 min |  | 
COC(=O)N[C@H](C(=O)N[C@@H](Cc1ccc(C#Cc2cnc(N3CC4CCC(C3)N4C3COC3)nc2)cc1)[C@H](CN(Cc1c(F)cc(-c2ccn(C(F)F)n2)cc1F)NC(=O)[C@@H](NC(=O)OC)C(C)(C)C(F)(F)F)OC(=O)OC(C)OC(=O)CC(C)(C)c1c(CC(=O)O)cc(C)cc1OP(=O)(O)O)C(C)(C)C(F)(F)F (stereo in doubt) [Example 64] |  | 1271 nM |  |  |  |  |  |  |  |  |  | 506 min | 11.1 nM | 165 μg/mL
COC(=O)N[C@H](C(=O)N[C@@H](Cc1ccc(C#Cc2cnc(N3CC4CCC(C3)N4C3COC3)nc2)cc1)[C@H](CN(Cc1c(F)cc(-c2ccn(C(F)F)n2)cc1F)NC(=O)[C@@H](NC(=O)OC)C(C)(C)C(F)(F)F)OC(=O)CC(C)(C)c1c(CC(=O)N(CCCC(=O)O)CC(=O)O)cc(C)cc1OP(=O)(O)O)C(C)(C)C(F)(F)F [Example 8] | 230 nM | 1709.4 nM |  |  | 3260 µg/mL (≈ 2000 µM) | 8.4 % of total | 157.3 nM |  |  |  |  | 427 min |  | 
COC(=O)N[C@H](C(=O)N[C@@H](Cc1ccc(C#Cc2cnc(N3CC4CCC(C3)N4C3COC3)nc2)cc1)[C@H](CN(Cc1c(F)cc(-c2ccn(C(F)F)n2)cc1F)NC(=O)[C@@H](NC(=O)OC)C(C)(C)C(F)(F)F)OC(=O)CC(C)(C)c1c(CC(=O)NCC(C)(C)C(=O)O)cc(C)cc1OP(=O)(O)O)C(C)(C)C(F)(F)F [Example 103] | 132 nM | 1589 nM |  |  | 80 µg/mL (≈ 50.5 µM) |  |  |  |  |  |  | 331 min |  | 
